Structures are written as SMILES. Where “and” joins values, the source holds several entries; their conditions need not be identical. Identical values can stand only once. Like-named read-outs stand apart in the source and are kept apart here.

The nature of data set [1]: Plasma pharmacokinetics by LC-MS/MS in OVCAR3 xenograft tumor-bearing nude mice. The class given is in vivo, BALB/c nude mice. Conditions: n = 3; for AUC(0-t) / half-life / Cmax: po, 25 mg/kg; for Cmax: read-out: Cmax. The method, then:
(§1) This study, approved by Fudan University Ethics Committee (protocol code: 201904008Z) on 26 April 2019, was conducted in compliance with AAALAC’s International Commission guidelines for laboratory animal evaluation and accreditation. A total of 36 female BALB/c nude mice (6–8 weeks old, weighing 18–20 g) were purchased from Charles River Laboratories (Pinghu, China). The OVCAR3 ovarian cancer cell line (ATCC® HTB-161™) was used to establish human xenografts. OVCAR3 cells (10 × 10^6) suspended in 0.2 mL of Matrigel were subcutaneously inoculated into the dorsal region of each mouse. Tumors were allowed to grow until reaching a volume of ~160 mm^3, typically around 30 days post-inoculation.
(§2) WX390 was prepared in Solvent-1, comprising dimethyl sulfoxide (DMSO): methylcellulose: water at a ratio of 1:1:98 (v/v/v). BYL719 and dorzagliatin were formulated in Solvent-2, consisting of Tween 80: water with 0.5% methylcellulose (MC) solution at a ratio of 0.2:99.8 (v/v). The treatment control was a combination of Solvent-1 and Solvent-2. The test compounds were administered orally as follows: WX390 at 0.2 mg/kg, BYL719 at 25 mg/kg, and dorzagliatin at 10 mg/kg, dissolved in their respective formulations. Due to ethical considerations regarding gavage volume the administration volume across all groups was standardized to 10 μL/g of body weight.
(§3) The experiment involved six treatment groups, each comprising six mice. The groups included: (i) vehicle control, (ii) WX390 (0.2 mg/kg), (iii) BYL719 (25 mg/kg), (iv) dorzagliatin (10 mg/kg), (v) WX390 (0.2 mg/kg) + dorzagliatin (10 mg/kg), and (vi) BYL719 (25 mg/kg) + dorzagliatin (10 mg/kg). All treatments were administered via oral gavage once daily for four weeks. In the combination group of PI3Ki and dorzagliatin, dorzagliatin was administered 30 min prior to PI3Ki.
Following the 4-week treatment period, all experimental groups were fasted 6 h before the last administration until the end of the experiment. Water was not restricted during the fasting period. Blood samples were collected at 0, 0.5, 1, 2, 4, and 8 h after administration. Each mouse had 3 blood collection points, with 50 μL of plasma collected at each point. Mice in each group were allocated to two cohorts: The first cohort underwent blood collection at 0, 1, and 2 h post-administration, while the second cohort was sampled at 0.5, 4, and 8 h post-administration. Terminal blood collection at the 2-h time point for the first cohort was performed via cardiac puncture following euthanasia, during which tumor tissues were concurrently harvested from this cohort. Blood samples were processed through centrifugation (4 °C, 1500× g for 10 min) for plasma separation. All plasma and tumor samples were immediately snap-frozen in liquid nitrogen and stored at −80 °C for subsequent analysis.
The extraction of WX390, BYL719, and dorzagliatin from plasma samples was performed using protein precipitation. Internal standards (IS) included SBL-D3, BNSL-D5, and PLPL-D8 for WX390, BYL719, and dorzagliatin, respectively. Plasma samples (20 μL) were mixed with 20 μL of zinc sulfate aqueous solution (0.1 mol/L) and 200 µL of a 50% methanol solution containing three internal standards followed by vortexing for 10 min. The samples were centrifuged at 4 °C (15,000× g for 5 min). The supernatant (180 μL) was transferred to a clean Eppendorf tube, and a 10 μL aliquot was injected into the LC-MS/MS system.
Chromatographic separations were performed using an AB SCIEX Jasper HPLC system coupled with an AB SCIEX Triple Quad 4500MD mass spectrometer (AB SCIEX, USA). A Phenomenex Kinetex C18 column (100 × 3 mm, 2.6 μm) was used at 40 °C. The flow rate was maintained at 0.4 mL/min with a total run time of 4 min. […]

Another data set relates to OVCAR3 xenograft tumor. The data set can be described thus: In vivo tumor growth, OVCAR3 subcutaneous xenograft tumor model. The arrangement: species or system BALB/c nude mice. Conditions: n = 6. Here is the method: as §1, §2, §3
Tumor dimensions were measured biweekly using a vernier caliper. Tumor volume was calculated using the formula:(1) V=0.5a×b^2 where: • a represents the longest tumor diameter. • b represents the shortest diameter.
The antitumor efficacy of each group was evaluated using TGI or T/C. TGI (%) reflects the rate of tumor growth inhibition and is calculated as follows:(2) TGI%=1−Vend−V0exp/Vend−V0control×100% where: • Vend represents mean tumor volume at the end of treatment in the group. • V0 represents mean tumor volume at the start of treatment in the group. • exp represents the treated groups. • control represents the vehicle control group.
T/C (%) is calculated using the formula:(3) T/C%=TRTV/CRTV×100% where: • TRTV is the Relative Tumor Volume of the treatment group. • CRTV is the Relative Tumor Volume of the negative control group.
The Relative Tumor Volume (RTV) is calculated based on tumor measurement results using the formula:(4) RTV=Vt/V0 where: • V0 is the mean tumor volume at the time of grouping (day 0). • Vt is the mean tumor volume at a given measurement time.
TRTV and CRTV are based on data from the same day.
At the conclusion of the experiment, tumor weights were measured, and the T/C was calculated. Tweight and Cweight represent the tumor weights of the treatment group and the vehicle control group, respectively.

For data set [2] the following is noted: cited from earlier work.
The conditions of data set [3]: major metabolite BZG791; CYP3A4 to a lesser extent; no reference given; cited from earlier work.
In another data set the test system is P-gp. To be noted: cited from earlier work.
The subject of another data set is CYP3A4. The arrangement: method as in ref 31 = [31]; 31. FDA Label of PIQRAY® (Alpelisib) FDA Silver Spring, MD, USA 2019. Conditions: repeated doses of 300 mg BYL719 with midazolam and other substrates, everolimus; cited from earlier work.
The conditions of data set [4]: human, in vivo; cited from earlier work.
Setting [5] is: female, BALB/c nude, mouse, plasma, PI3Ki measured in combination group with Dorz 10 mg/kg (given 30 min before), WX390 0.2 mg/kg or BYL719 25 mg/kg oral.
The mark [6] stands for this setting: female, BALB/c nude, mouse, plasma, monotherapy group, plasma, oral gavage once daily for four weeks, Dorz 10 mg/kg, WX390 0.2 mg/kg, BYL719 25 mg/kg.
Where [7] appears, read: based on tumor volume on day 28, vs vehicle.

Turning to `Cc1nc(NC(=O)N2CCC[C@H]2C(N)=O)sc1-c1ccnc(C(C)(C)C(F)(F)F)c1` [BYL719, alpelisib], in data set [1] (PI3Ki measured in combination group with Dorz 10 mg/kg (given 30 min before), WX390 0.2 mg/kg or BYL719 25 mg/kg oral), the Tmax came out at 1.00 h. For the same compound, in data set [1] (setting [5]), the area under the curve AUC(0-t) is 24800 ng·h/mL, the half-life was 6.72 h and the Cmax worked out at 4210 ng/mL. In data set [1] (setting [6]), the exposure AUC(0-t) came to 29000 ng·h/mL, the half-life was 5.33 h and the maximum concentration (Cmax) was determined as 4790 ng/mL. Besides, the Tmax in data set [1] (female, BALB/c nude, mouse, monotherapy group, plasma, oral gavage once daily for four weeks, Dorz 10 mg/kg, WX390 0.2 mg/kg, BYL719 25 mg/kg, read-out: Tmax) came to 1 h. Further, in the data set with OVCAR3 xenograft tumor (setting [7]), the “T/C (Relative Tumor Growth Rate)” value is on record as 52.85% and the “TGI (Tumor Growth Inhibition)” value is 52.46%. For the same compound, the “Tumor Volume (Day 28)” value in the data set on OVCAR3 xenograft tumor (day 28 after administration, oral once daily, Dorz 10 mg/kg, WX390 0.2 mg/kg, BYL719 25 mg/kg, vehicle 1582 mm^3) is 836 mm^3 and 836 ± 71 mm^3. Further, in data set [2] (300 mg/day), the AUC0→24h is recorded as 33,224 ng·h/mL and the highest concentration (Cmax) is reported as 2480 ng/mL. Also, in data set [2], the “apparent volume of distribution” value is given as 114 L, the clearance rate was 9.2 L/h, the “effect of food intake on pharmacokinetic profile” value is “does not significantly affect” and the “plasma protein binding rate” value is 89%. For the same compound, the “dose proportionality of exposure” value in data set [2] (fed conditions, doses 30 to 450 mg) is reported as “increases proportionally”. The “metabolic route (in vitro studies)” value in data set [3] is “primarily metabolized through chemical degradation and enzymatic hydrolysis”. The P-gp inhibitor status entry with P-gp was “P-gp inhibitor”. The CYP3A4 inhibitor status result in the data set with CYP3A4 is recorded as “not a CYP3A4 inhibitor”. For the same compound, in data set [4], the “rate of hyperglycemia, any grade” value is on record as 63.7%; the “rate of hyperglycemia, grades 3–4” value was 36.6%; the “treatment discontinuation rate due to hyperglycemia” value is listed as 6.3%.

Usually Tmax stands for the time at which the peak concentration occurs. As usually defined, the AUC(0-t) is the area under the concentration-time curve up to a stated or last time point. What is called half-life is how long it takes for the measured level to halve. Usually Cmax stands for the highest concentration seen after dosing.

The values are drawn from PMC12196043, “In Vivo PK-PD and Drug–Drug Interaction Study of Dorzagliatin for the Management of PI3Kα Inhibitor-Induced Hyperglycemia” (Pharmaceuticals, 2025).
